Legend:
[1] = system: adults with biopsy-confirmed NASH; assay: 36-week Phase 2 serial MRI-PDFF and liver biopsy study: liver volume and PDFF; format: in vivo, human
Description: Hepatomegaly may cause symptoms (e.g., pain) in NASH patients, and is thought to be driven primarily by high liver fat content. […] This study was to assess the relationship between liver triglycerides as measured by MRI-PDFF and liver volume (LV) in placebo and resmetirom-treated patients.
LV was assessed using a validated artificial intelligence model for segmenting the liver on standard MR images.
LV at baseline was elevated in non-cirrhotic and cirrhotic NASH patients relative to literature values for healthy controls and was greater than predicted even after accounting for sex and body weight. PDFF correlated with LV at baseline in non-cirrhotic (r2=0.19, p<0.001) and more weakly in cirrhotic NASH (r2=0.079, p=0.01).

NASH patients = assay: MAESTRO-NAFLD-1 100 mg open label non-cirrhotic NASH arm, 52 weeks; format: in vivo, human
Description: The 169 patient, 100 mg open label (OL) arm completed the 52 week study in July 2021.
Eligibility required at least 3 metabolic risk factors (Metabolic syndrome), fibroscan kilopascals (kPa) consistent with ≥F1 fibrosis stage, and MRI-PDFF≥8%. The primary and key secondary endpoints of MAESTRO-NAFLD-1 including safety, relative percent reduction of MRI-PDFF (week 16), LDL cholesterol (LDL-C) (week 24), apolipoprotein B and triglycerides, fibroscan and 52 week endpoints were analyzed in the OL arm.
Mean age was 55.7 (11.5 Standard Deviation (SD)), female 69%, BMI 35.8 (6.0), diabetes 43%, hypertension 62%, dyslipidemia >70%, atherosclerotic cardiovascular disease (ASCVD) score 11.5%; fibroscan (kPa 7.7 (3.6)), and MRI-PDFF 17% (7%). […] Liver volume (LV) was elevated at baseline (2202 cm3 (535)) by […] relative to normal controls and −15% after correction for BMI (Euro J of Radiol 106, 2018, 32-37). […] LV reduction was 2-3 fold greater than predicted by % reduction in MRI-PDFF, a measure of liver fat content (Clin Gastroenterol Hepatol. 2015 13: 561-568); LY-corrected mean MRI-PDFF reduction was −63% (2.4%). […] At week 52, magnetic resonance elastography (MRE) (−0.34, p=0.03); fibroscan controlled attenuation parameter (CAP) (−39 (4.6)) and vibration-controlled transient elastography (VCTE) (−1.87; −20%) (p<0.0001) were reduced relative to baseline.

[2] = system: well-compensated NASH cirrhotic patients; assay: MAESTRO-NAFLD-1 open label well-compensated NASH cirrhotic arm, 52 weeks; format: in vivo, human
Description: LV was assessed using a validated artificial intelligence model for segmenting the liver on standard MR images. […] Eligibility required at least 3 metabolic risk factors (metabolic syndrome), and NASH cirrhosis diagnosed on liver biopsy or according to accepted criteria. […] Demographics include mean age 62.7 (9.0 (SD)), female 64%, BMI 35.4 (7.4), diabetes 70%, hypertension 77%, dyslipidemia >70%, mean ASCVD score 16.1%, hypothyroid 32.4%, 51% on statins. […] Stage of cirrhosis was inversely correlated with baseline PDFF.

CYP2C8 = molecular target: T1, CYP2C8 (Homo sapiens, UniProt P10632); assay: Concomitant use with a CYP2C8 inhibitor; set-up: from tissue; host or cells: human subjects in vivo (endogenous enzyme); conditions: in vivo
T1 sequence (P10632 1-490): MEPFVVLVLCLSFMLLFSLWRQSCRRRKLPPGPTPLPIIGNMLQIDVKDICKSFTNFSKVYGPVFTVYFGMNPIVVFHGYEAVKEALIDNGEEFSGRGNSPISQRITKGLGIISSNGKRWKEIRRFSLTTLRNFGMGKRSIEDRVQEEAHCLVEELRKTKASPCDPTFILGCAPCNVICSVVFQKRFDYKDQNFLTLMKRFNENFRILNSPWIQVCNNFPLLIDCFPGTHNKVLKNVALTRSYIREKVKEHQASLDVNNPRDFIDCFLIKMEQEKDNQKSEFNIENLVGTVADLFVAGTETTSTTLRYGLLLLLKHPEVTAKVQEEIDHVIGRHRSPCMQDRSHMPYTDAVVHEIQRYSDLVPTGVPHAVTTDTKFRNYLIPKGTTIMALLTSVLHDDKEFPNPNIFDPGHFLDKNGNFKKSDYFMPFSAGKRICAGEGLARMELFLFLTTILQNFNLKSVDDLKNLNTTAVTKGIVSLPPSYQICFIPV

[3] = cirrhotic NASH, PDFF≤5% at baseline, week 16

## CC(C)c1cc(Oc2c(Cl)cc(-n3nc(C#N)c(=O)[nH]c3=O)cc2Cl)n[nH]c1=O [Resmetirom, 2-(3,5-dichloro-4-((5-isopropyl-6-oxo-1,6-dihydropyridazin-3-yl)oxy)phenyl)-3,5-dioxo-2,3,4,5-tetrahydro-1,2,4-triazine-6-carbonitrile]
[1]; 12 weeks
  LV reduction (CFB): −18.6%
[1]; 36 weeks
  LV reduction (CFB): −20.5%
[1]; Week 12
  patients with ≥15% reduction in liver volume: 69.2%
NASH patients
  ALT decrease from baseline: −20 IU
  AST decrease from baseline: −11 IU
  Blood pressure (systolic, diastolic) change: −2 mmHg
  GGT decrease from baseline: −25 IU
  LDL-C change: −22%
  LV reduction greater than predicted by % reduction in MRI-PDFF: 2-3 fold
  LV-corrected mean MRI-PDFF reduction: −63%
  apolipoprotein-B change: −24%
  triglycerides change: −24%
NASH patients; 52 weeks
  bone mineral density (DEXA): unchanged
  safety: No safety flags
NASH patients; week 16
  LV change: −21%
NASH patients; week 52
  LV change: −23%
  reduction of MRI-PDFF: −53%
[2]; 80-100 mg daily, week 52
  fibroscan CAP change: −42 units
  fibroscan kPa change: −7.6 kPa
[2]; [3]
  LV mean %CFB: −16.3%
  PDFF mean %CFB: −2.5%
[2]; in vivo
  ApoB reduction: 20%
  Blood pressure reduction: 4-5 mm
  GGT change: −27%
  LDL-C reduction: 20%
  Lp(a) reduction: 30%
  alkaline phosphatase (ALP) change: −18%
  safety and tolerability: safe and well-tolerated
  triglycerides reduction: 21%
[2]; patients with baseline PDFF>5%
  PDFF lowered by: 37%
[2]; week 16
  Liver volume change: −15.9%
[2]; week 52
  MRE lowered by: 0.68 kPa
  patients with >15% reduction in LV: 73%
  patients with MRE reduction of ≥15%: 34%
CYP2C8
  effect of concomitant CYP2C8 inhibitor on exposure: increase resmetirom Cmax and AUC
